pIC50: −log10 of the molar value. Where “and” joins values, the source holds several entries; their conditions need not be identical. Equal values may be shown once. Entries after “also recorded” stand apart in the source; their conditions may differ. Read-outs that look alike come from different tables or passages of the source.
Key:
E. coli W3110 [1] = assay: Checkerboard assay with PMBN; details: for Checkerboard well reading (growth), Average values: average of 3 wells; for Checkerboard well reading (growth): single wells (triplicate)
K. pneumoniae ATCC 29665 = assay: MIC by broth microdilution; type: cell-based, Klebsiella pneumoniae; details: read-out: MIC K. pneumoniae ATCC 29665
Outline: (§1)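 Exponential-phase cultures (OD600 0.5, 37 °C aerobic), diluted 100-fold in CAMHB, were added to twofold compound dilution series. Keio strains grown with 50 µg ml^−1 kanamycin. Plates incubated overnight at 37 °C, shaking at 600 r.p.m.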

E. coli W3110 [2] = assay: MIC by broth microdilution; type: cell-based, Escherichia coli; details: for MIC: broth microdilution, read-out: MIC E. coli W3110; for antimicrobial activity: relative to parent compound
Outline: as §1

HEK293T = assay: Cytotoxicity assay (MTT); type: cell-based, human; details: for MTT data (raw readout): HEK293T; for pIC50: 24 h, MTT
Outline: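 HEK293T cells, maintained at 37 °C and 7% CO2 in Dulbecco’s modified Eagle medium with GlutaMax, antibiotics and serum, were plated in clear 96-well plates in 100 µl medium containing 1% fetal bovine serum and left 24 h to attach. After 24 h compound exposure, MTT (0.40 mg ml^−1) was added for 2 h. Formazan was dissolved in 100 µl DMSO and absorbance measured at 570 nm. Background-corrected IC50 values came from variable-slope non-linear fits.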

HepG2 = assay: Cytotoxicity assay (MTT); type: cell-based, human; details: for pIC50: MTT, 24 h

O=S(=O)(NC[C@H]1CC[C@@H](c2ccc(-c3ccc(F)nc3)cc2)N1)c1cccc2cnccc12 [LEI-801]
Checkerboard well reading (growth), Average values (E. coli W3110 [1]; LEI-801 25 µM + PMBN 4 µM): 0.1451
Checkerboard well reading (growth) (E. coli W3110 [1]; LEI-801 25 µM + PMBN 4 µM): 0.1525 and 0.1428 and 0.1399
Checkerboard well reading (growth), Average values (E. coli W3110 [1]; LEI-801 25 µM + PMBN 8 µM): 0.1413
Checkerboard well reading (growth) (E. coli W3110 [1]; LEI-801 25 µM + PMBN 8 µM): 0.1394 and 0.1427 and 0.1418
Checkerboard well reading (growth), Average values (E. coli W3110 [1]; LEI-801 25 µM + PMBN 16 µM): 0.1492
Checkerboard well reading (growth) (E. coli W3110 [1]; LEI-801 25 µM + PMBN 16 µM): 0.1486 and 0.1511 and 0.148
Checkerboard well reading (growth), Average values (E. coli W3110 [1]; LEI-801 25 µM + PMBN 32 µM): 0.1528
Checkerboard well reading (growth) (E. coli W3110 [1]; LEI-801 25 µM + PMBN 32 µM): 0.1518 and 0.1502 and 0.1563
Checkerboard well reading (growth), Average values (E. coli W3110 [1]; LEI-801 50 µM + PMBN 0 µM): 0.5341
Checkerboard well reading (growth) (E. coli W3110 [1]; LEI-801 50 µM + PMBN 0 µM): 0.4876 and 0.5464 and 0.5682
Checkerboard well reading (growth), Average values (E. coli W3110 [1]; LEI-801 50 µM + PMBN 0.5 µM): 0.1519
Checkerboard well reading (growth) (E. coli W3110 [1]; LEI-801 50 µM + PMBN 0.5 µM): 0.1573 and 0.1437 and 0.1549
Checkerboard well reading (growth), Average values (E. coli W3110 [1]; LEI-801 50 µM + PMBN 1 µM): 0.152
Checkerboard well reading (growth) (E. coli W3110 [1]; LEI-801 50 µM + PMBN 1 µM): 0.1515 and 0.1507 and 0.1538
Checkerboard well reading (growth), Average values (E. coli W3110 [1]; LEI-801 50 µM + PMBN 2 µM): 0.1516
Checkerboard well reading (growth) (E. coli W3110 [1]; LEI-801 50 µM + PMBN 2 µM): 0.15 and 0.1487 and 0.1561
Checkerboard well reading (growth), Average values (E. coli W3110 [1]; LEI-801 50 µM + PMBN 4 µM): 0.1474
Checkerboard well reading (growth) (E. coli W3110 [1]; LEI-801 50 µM + PMBN 4 µM): 0.1453 and 0.1491 and 0.1477
Checkerboard well reading (growth), Average values (E. coli W3110 [1]; LEI-801 50 µM + PMBN 8 µM): 0.1653
Checkerboard well reading (growth) (E. coli W3110 [1]; LEI-801 50 µM + PMBN 8 µM): 0.1998 and 0.1452 and 0.1509
Checkerboard well reading (growth), Average values (E. coli W3110 [1]; LEI-801 50 µM + PMBN 16 µM): 0.1513
Checkerboard well reading (growth) (E. coli W3110 [1]; LEI-801 50 µM + PMBN 16 µM): 0.1499 and 0.152 and 0.1519
Checkerboard well reading (growth), Average values (E. coli W3110 [1]; LEI-801 50 µM + PMBN 32 µM): 0.1507
Checkerboard well reading (growth) (E. coli W3110 [1]; LEI-801 50 µM + PMBN 32 µM): 0.1485 and 0.1492 and 0.1546
MIC E. coli + 8 μM PMBN (E. coli W3110 [1]; LPS disruption (pharmacological)): 6.25 µM
synergy with PMBN (E. coli W3110 [1]; checkerboard): potentiates; also recorded: Clear synergy
MSC (E. coli W3110 [1]; checkerboard with PMBN, E. coli W3110): 6.25 µM
MIC (K. pneumoniae ATCC 29665; Klebsiella pneumoniae, ATCC29665, broth microdilution): > 50 µM
MIC (K. pneumoniae ATCC 29665; broth microdilution, listed as LEI-801 (99)): > 50 µM
MIC (E. coli W3110 [2]; Escherichia coli, W3110, WT): > 50 µM
MIC (E. coli W3110 [2]; WT, listed as LEI-801 (99)): > 50 µM
antimicrobial activity (E. coli W3110 [2]; listed as 99): completely inactive
antimicrobial activity (E. coli W3110 [2]; listed as 99 (LEI-801)): inactive
MTT data (raw readout) (HEK293T; 0.023 uM, experiment n = 1, technical triplicates, listed as LEI-801 (99)): 1.090 and 1.041 and 1.057
MTT data (raw readout) (HEK293T; 0.023 uM, experiment n = 2, technical triplicates, listed as LEI-801 (99)): 0.858 and 0.977 and 0.938
MTT data (raw readout) (HEK293T; 0.068 uM, experiment n = 1, technical triplicates, listed as LEI-801 (99)): 1.154 and 1.082 and 1.072
MTT data (raw readout) (HEK293T; 0.068 uM, experiment n = 2, technical triplicates, listed as LEI-801 (99)): 1.027 and 1.034 and 1.015
MTT data (raw readout) (HEK293T; 0.21 uM, experiment n = 1, technical triplicates, listed as LEI-801 (99)): 1.127 and 1.121 and 1.094
MTT data (raw readout) (HEK293T; 0.21 uM, experiment n = 2, technical triplicates, listed as LEI-801 (99)): 0.913 and 0.892 and 0.944
MTT data (raw readout) (HEK293T; 0.62 uM, experiment n = 1, technical triplicates, listed as LEI-801 (99)): 1.141 and 1.092 and 0.930
MTT data (raw readout) (HEK293T; 0.62 uM, experiment n = 2, technical triplicates, listed as LEI-801 (99)): 1.083 and 0.946 and 1.064
MTT data (raw readout) (HEK293T; 1.85 uM, experiment n = 1, technical triplicates, listed as LEI-801 (99)): 1.167 and 1.005 and 0.915
MTT data (raw readout) (HEK293T; 5.6 uM, experiment n = 1, technical triplicates, listed as LEI-801 (99)): 0.937 and 1.019 and 1.040
MTT data (raw readout) (HEK293T; 5.6 uM, experiment n = 2, technical triplicates, listed as LEI-801 (99)): 1.075 and 0.764 and 0.931
MTT data (raw readout) (HEK293T; 16.7 uM, experiment n = 1, technical triplicates, listed as LEI-801 (99)): 0.838 and 0.818 and 0.874
MTT data (raw readout) (HEK293T; 16.7 uM, experiment n = 2, technical triplicates, listed as LEI-801 (99)): 0.745 and 0.746 and 0.735
MTT data (raw readout) (HEK293T; 50 uM, experiment n = 1, technical triplicates, listed as LEI-801 (99)): 0.494 and 0.473 and 0.487
MTT data (raw readout) (HEK293T; 50 uM, experiment n = 2, technical triplicates, listed as LEI-801 (99)): 0.506 and 0.491 and 0.495
pIC50 (HEK293T; Homo sapiens, HEK-293T): 4.29
pIC50 (HEK293T; listed as LEI-801 (99)): < 4.30
MTT data (raw readout) (HepG2; HepG2, 0.023 uM, experiment n = 1, technical triplicates, listed as LEI-801 (99)): 0.358 and 0.291 and 0.289
MTT data (raw readout) (HepG2; HepG2, 0.023 uM, experiment n = 2, technical triplicates, listed as LEI-801 (99)): 0.296 and 0.284 and 0.274
MTT data (raw readout) (HepG2; HepG2, 0.068 uM, experiment n = 1, technical triplicates, listed as LEI-801 (99)): 0.356 and 0.307 and 0.313
MTT data (raw readout) (HepG2; HepG2, 0.068 uM, experiment n = 2, technical triplicates, listed as LEI-801 (99)): 0.301 and 0.287 and 0.260
MTT data (raw readout) (HepG2; HepG2, 0.21 uM, experiment n = 1, technical triplicates, listed as LEI-801 (99)): 0.330 and 0.315 and 0.323
MTT data (raw readout) (HepG2; HepG2, 0.21 uM, experiment n = 2, technical triplicates, listed as LEI-801 (99)): 0.350 and 0.289 and 0.265
MTT data (raw readout) (HepG2; HepG2, 0.62 uM, experiment n = 1, technical triplicates, listed as LEI-801 (99)): 0.417 and 0.319 and 0.320
MTT data (raw readout) (HepG2; HepG2, 0.62 uM, experiment n = 2, technical triplicates, listed as LEI-801 (99)): 0.301 and 0.282 and 0.253
MTT data (raw readout) (HepG2; HepG2, 1.85 uM, experiment n = 1, technical triplicates, listed as LEI-801 (99)): 0.361 and 0.335 and 0.354
MTT data (raw readout) (HepG2; HepG2, 1.85 uM, experiment n = 2, technical triplicates, listed as LEI-801 (99)): 0.263 and 0.269 and 0.244
MTT data (raw readout) (HepG2; HepG2, 5.6 uM, experiment n = 1, technical triplicates, listed as LEI-801 (99)): 0.370 and 0.351 and 0.360
MTT data (raw readout) (HepG2; HepG2, 5.6 uM, experiment n = 2, technical triplicates, listed as LEI-801 (99)): 0.293 and 0.267 and 0.296
MTT data (raw readout) (HepG2; HepG2, 16.7 uM, experiment n = 1, technical triplicates, listed as LEI-801 (99)): 0.376 and 0.357 and 0.431
MTT data (raw readout) (HepG2; HepG2, 16.7 uM, experiment n = 2, technical triplicates, listed as LEI-801 (99)): 0.300 and 0.252 and 0.259
MTT data (raw readout) (HepG2; HepG2, 50 uM, experiment n = 1, technical triplicates, listed as LEI-801 (99)): 0.327 and 0.318 and 0.307
MTT data (raw readout) (HepG2; HepG2, 50 uM, experiment n = 2, technical triplicates, listed as LEI-801 (99)): 0.232 and 0.220 and 0.225
pIC50 (HepG2; Homo sapiens, HepG2, 24 h): < 4.00
pIC50 (HepG2; listed as LEI-801 (99)): < 4.30
